Reference: US10344060B2 (priority 2013, dated 2019)

What was measured:
Assay in all cases: cell-based
rNav1.7 = rNav1.7 (Rattus norvegicus, UniProt O08562); conditions: for IC50: PatchXpress, tonic block, rat Nav1.7, read-out: PX rNav1.7 Tonic IC50; for rNav1.7/hNav1.7: ratio of PX tonic IC50, rat Nav1.7 over human Nav1.7
mouse Nav1.4 = mouse Nav1.4 (Mus musculus, UniProt Q9ER60); conditions: for IC50: PatchXpress, tonic block, mouse Nav1.4, read-out: PX mNav1.4 Tonic IC50; for mNav1.4/mNav1.7: ratio of PX tonic IC50, mouse Nav1.4 over mouse Nav1.7
mouse Nav1.4, sequence (Q9ER60 whole entry): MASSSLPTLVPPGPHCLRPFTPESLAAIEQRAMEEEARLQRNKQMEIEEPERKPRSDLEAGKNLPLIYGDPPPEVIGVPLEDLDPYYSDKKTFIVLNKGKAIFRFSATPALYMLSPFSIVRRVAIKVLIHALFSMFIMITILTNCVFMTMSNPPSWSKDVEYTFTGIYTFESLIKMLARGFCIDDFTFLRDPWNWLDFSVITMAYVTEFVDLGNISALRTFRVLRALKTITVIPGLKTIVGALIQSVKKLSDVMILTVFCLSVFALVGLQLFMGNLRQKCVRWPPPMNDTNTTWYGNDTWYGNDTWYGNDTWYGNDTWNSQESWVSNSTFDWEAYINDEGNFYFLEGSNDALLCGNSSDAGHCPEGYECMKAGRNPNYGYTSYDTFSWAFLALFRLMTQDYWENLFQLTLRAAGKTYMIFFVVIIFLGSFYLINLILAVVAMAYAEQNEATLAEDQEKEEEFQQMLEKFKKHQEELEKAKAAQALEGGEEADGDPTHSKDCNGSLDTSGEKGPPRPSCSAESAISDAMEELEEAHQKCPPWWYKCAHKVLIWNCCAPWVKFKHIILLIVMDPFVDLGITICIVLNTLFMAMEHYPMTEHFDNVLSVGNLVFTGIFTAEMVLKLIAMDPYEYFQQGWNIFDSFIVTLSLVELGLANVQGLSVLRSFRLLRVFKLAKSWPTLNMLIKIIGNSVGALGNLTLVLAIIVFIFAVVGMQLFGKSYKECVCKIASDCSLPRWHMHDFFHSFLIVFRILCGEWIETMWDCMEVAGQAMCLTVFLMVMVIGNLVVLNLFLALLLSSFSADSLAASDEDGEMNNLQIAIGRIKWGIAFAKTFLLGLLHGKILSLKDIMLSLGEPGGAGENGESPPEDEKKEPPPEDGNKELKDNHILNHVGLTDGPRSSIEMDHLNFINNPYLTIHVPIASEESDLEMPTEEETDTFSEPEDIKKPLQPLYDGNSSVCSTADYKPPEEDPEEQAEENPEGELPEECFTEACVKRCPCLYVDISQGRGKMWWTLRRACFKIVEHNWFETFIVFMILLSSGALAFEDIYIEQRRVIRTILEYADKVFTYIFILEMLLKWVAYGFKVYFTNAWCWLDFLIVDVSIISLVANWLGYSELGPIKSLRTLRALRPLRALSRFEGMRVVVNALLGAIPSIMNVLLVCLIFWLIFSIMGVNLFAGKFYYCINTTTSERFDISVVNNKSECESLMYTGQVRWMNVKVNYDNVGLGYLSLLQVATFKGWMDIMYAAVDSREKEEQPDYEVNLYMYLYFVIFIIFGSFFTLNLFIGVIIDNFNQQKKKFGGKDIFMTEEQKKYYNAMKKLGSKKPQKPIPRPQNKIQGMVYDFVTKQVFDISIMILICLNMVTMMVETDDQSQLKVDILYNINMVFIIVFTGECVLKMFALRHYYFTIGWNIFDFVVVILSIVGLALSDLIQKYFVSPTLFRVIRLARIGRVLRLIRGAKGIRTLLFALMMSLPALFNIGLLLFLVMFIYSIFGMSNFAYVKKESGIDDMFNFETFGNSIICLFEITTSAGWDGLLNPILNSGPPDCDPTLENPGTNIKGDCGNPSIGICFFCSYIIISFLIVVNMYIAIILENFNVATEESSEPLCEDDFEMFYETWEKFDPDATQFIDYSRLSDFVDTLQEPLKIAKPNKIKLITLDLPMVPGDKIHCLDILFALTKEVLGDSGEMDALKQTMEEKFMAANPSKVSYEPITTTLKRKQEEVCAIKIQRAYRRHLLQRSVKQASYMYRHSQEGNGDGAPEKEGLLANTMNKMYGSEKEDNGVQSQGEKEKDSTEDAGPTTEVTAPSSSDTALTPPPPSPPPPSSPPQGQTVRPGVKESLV

mNav1.7 = mNav1.7 (Mus musculus, UniProt Q62205); conditions: for IC50: PatchXpress, tonic block, mouse Nav1.7, read-out: PX mNav1.7 Tonic IC50; for mNav1.7/hNav1.7: ratio of PX tonic IC50, mouse Nav1.7 over human Nav1.7

rNav1.7, sequence (O08562 whole entry): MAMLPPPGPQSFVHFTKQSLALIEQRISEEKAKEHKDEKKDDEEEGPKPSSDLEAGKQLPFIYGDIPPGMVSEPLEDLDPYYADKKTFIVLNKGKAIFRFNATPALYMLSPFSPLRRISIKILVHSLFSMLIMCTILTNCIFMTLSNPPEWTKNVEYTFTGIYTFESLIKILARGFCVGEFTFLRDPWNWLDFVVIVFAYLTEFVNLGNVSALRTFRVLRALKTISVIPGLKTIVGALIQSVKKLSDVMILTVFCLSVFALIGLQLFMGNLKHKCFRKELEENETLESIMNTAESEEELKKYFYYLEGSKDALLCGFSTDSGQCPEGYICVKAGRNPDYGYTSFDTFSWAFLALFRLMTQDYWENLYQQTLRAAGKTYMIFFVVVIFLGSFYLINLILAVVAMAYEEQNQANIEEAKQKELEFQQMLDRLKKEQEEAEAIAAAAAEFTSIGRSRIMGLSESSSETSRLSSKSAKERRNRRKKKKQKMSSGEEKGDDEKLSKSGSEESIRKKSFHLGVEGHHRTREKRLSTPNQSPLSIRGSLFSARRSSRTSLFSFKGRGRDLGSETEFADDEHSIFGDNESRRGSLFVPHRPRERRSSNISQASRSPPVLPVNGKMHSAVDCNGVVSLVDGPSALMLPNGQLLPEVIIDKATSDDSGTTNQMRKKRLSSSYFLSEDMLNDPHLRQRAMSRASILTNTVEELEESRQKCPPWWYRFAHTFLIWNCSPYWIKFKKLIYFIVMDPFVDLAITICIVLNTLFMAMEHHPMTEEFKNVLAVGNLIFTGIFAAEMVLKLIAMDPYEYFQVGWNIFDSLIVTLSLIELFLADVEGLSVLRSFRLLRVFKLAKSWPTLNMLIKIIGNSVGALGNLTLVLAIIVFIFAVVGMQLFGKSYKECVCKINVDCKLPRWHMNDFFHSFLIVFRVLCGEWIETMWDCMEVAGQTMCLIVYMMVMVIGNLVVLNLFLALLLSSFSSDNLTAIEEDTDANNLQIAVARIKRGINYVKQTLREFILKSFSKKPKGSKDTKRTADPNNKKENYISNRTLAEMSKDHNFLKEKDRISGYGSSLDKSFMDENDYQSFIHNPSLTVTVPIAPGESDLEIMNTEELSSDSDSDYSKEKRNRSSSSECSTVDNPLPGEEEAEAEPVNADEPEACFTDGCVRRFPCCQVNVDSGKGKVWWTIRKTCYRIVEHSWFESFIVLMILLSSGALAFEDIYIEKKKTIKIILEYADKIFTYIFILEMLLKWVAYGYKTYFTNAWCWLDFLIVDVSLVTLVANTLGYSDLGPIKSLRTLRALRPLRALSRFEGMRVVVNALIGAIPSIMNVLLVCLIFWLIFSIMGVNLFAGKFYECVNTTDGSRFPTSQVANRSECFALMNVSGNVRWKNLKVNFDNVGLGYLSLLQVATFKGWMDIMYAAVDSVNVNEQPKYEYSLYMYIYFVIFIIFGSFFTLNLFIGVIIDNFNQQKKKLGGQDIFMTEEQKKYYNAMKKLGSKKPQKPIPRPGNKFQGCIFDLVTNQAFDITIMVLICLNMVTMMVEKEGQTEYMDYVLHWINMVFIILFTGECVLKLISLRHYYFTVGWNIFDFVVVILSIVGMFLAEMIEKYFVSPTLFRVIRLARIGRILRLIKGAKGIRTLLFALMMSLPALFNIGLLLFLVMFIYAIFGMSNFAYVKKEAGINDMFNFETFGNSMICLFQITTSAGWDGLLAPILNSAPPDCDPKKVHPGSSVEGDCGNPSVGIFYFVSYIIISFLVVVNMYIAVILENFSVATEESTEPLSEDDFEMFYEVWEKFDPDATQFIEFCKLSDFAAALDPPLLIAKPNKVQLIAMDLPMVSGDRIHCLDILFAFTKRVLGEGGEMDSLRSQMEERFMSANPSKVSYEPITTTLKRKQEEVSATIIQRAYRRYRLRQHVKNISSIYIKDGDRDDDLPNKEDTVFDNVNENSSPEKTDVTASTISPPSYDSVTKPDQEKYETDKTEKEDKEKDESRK

With `C#CC[C@H](N)C(=O)NCCCC[C@@H]1NC(=O)[C@H](CCCNC(=N)N)NC(=O)[C@H](CCCCN)NC(=O)[C@H](CO)NC(=O)[C@H](CC(=O)O)NC(=O)[C@@H]2CSSC[C@@H]3NC(=O)[C@H](CCCNC(=N)N)NC(=O)[C@H](CC(C)C)NC(=O)CNC(=O)[C@H](CCC(=O)O)NC(=O)[C@H](CSSC[C@H](NC(=O)[C@H](Cc4ccc(O)cc4)NC(=O)[C@@H](N)CC#N)C(=O)N[C@@H](CCC(N)=O)C(=O)N[C@@H](CCCCN)C(=O)N[C@@H](Cc4c[nH]c5ccccc45)C(=O)N[C@@H](CCCC)C(=O)N[C@@H](Cc4c[nH]c5ccccc45)C(=O)N[C@@H]([C@@H](C)O)C(=O)N2)NC(=O)[C@H](CSSC[C@@H](C(=O)N[C@@H](CCCNC(=N)N)C(=O)N[C@@H](CCCCN)C(=O)N[C@@H](CCC(=O)O)C(=O)N[C@H](C(N)=O)[C@@H](C)CC)NC(=O)[C@H](Cc2c[nH]c4ccccc24)NC(=O)[C@H](CC(C)C)NC(=O)[C@H](CCCCN)NC3=O)NC1=O` the IC50 (rNav1.7) was 2.73 nM, the rNav1.7/hNav1.7 (rNav1.7) was 1.71 and the IC50 (mouse Nav1.4) was 62.7 nM. It also gave a mNav1.4/mNav1.7 (mouse Nav1.4) of 6.4, an IC50 (mNav1.7) of 9.79 nM and a mNav1.7/hNav1.7 (mNav1.7) of 6.15.
In the case of `C#CC[C@@H]1NC(=O)[C@@H]2CSSC[C@H](NC(=O)[C@H](Cc3ccc(O)cc3)NC(=O)[C@@H](N)CC#N)C(=O)N[C@@H](CCC(N)=O)C(=O)N[C@@H](CCCCN)C(=O)N[C@@H](Cc3c[nH]c4ccccc34)C(=O)N[C@@H](CCCC)C(=O)N[C@@H](Cc3c[nH]c4ccccc34)C(=O)N[C@@H]([C@@H](C)O)C(=O)N[C@H]3CSSC[C@H](NC(=O)[C@H](CCCNC(=N)N)NC(=O)[C@H](CC(C)C)NC(=O)CNC1=O)C(=O)N[C@@H](CCCCN)C(=O)N[C@@H](CC(C)C)C(=O)N[C@@H](Cc1c[nH]c4ccccc14)C(=O)N[C@H](C(=O)N[C@@H](CCCNC(=N)N)C(=O)N[C@@H](CCCCN)C(=O)N[C@@H](CCC(=O)O)C(=O)N[C@H](C(N)=O)[C@@H](C)CC)CSSC[C@H](NC(=O)[C@H](C)NC(=O)[C@H](CCCNC(=N)N)NC(=O)[C@H](CCCCN)NC(=O)[C@H](CO)NC(=O)[C@H](CC(=O)O)NC3=O)C(=O)N2` [CyA-[Nle6, Pra17, Glu28]JzTx-V(1-29)], the IC50 (rNav1.7) is reported as 1.41 nM, the IC50 (mouse Nav1.4) is reported as 32.2 nM and the IC50 (mNav1.7) is reported as 4.8 nM.
In the case of `C#CC[C@H](N)C(=O)N[C@@H](CCC(=O)O)C(=O)N[C@H]1CSSC[C@@H]2NC(=O)[C@@H]3CSSC[C@@H](C(=O)N[C@@H](CCCNC(=N)N)C(=O)N[C@@H](CCCCN)C(=O)N[C@@H](CCC(=O)O)C(=O)N[C@H](C(N)=O)[C@@H](C)CC)NC(=O)[C@H](Cc4c[nH]c5ccccc45)NC(=O)[C@H](CC(C)C)NC(=O)[C@H](CCCCN)NC(=O)[C@H](CSSC[C@H](NC(=O)[C@H]([C@@H](C)O)NC(=O)[C@H](Cc4c[nH]c5ccccc45)NC(=O)[C@H](CCCC)NC(=O)[C@H](Cc4c[nH]c5ccccc45)NC(=O)[C@H](CCCCN)NC(=O)[C@H](CCC(N)=O)NC1=O)C(=O)N[C@@H](CC(=O)O)C(=O)N[C@@H](CO)C(=O)N[C@@H](CCCCN)C(=O)N[C@@H](CCCNC(=N)N)C(=O)N[C@@H](C)C(=O)N3)NC(=O)[C@H](CCCNC(=N)N)NC(=O)[C@H](CC(C)C)NC(=O)CNC(=O)[C@H](CCC(=O)O)NC2=O` [Pra-[Glu1, 28; Nle6]JzTx-V(1-29)], the IC50 (rNav1.7) is reported as 1.38 nM, the rNav1.7/hNav1.7 (rNav1.7) is reported as 1.22 and the IC50 (mouse Nav1.4) is reported as 259 nM. It also gave a mNav1.4/mNav1.7 (mouse Nav1.4) of 27, an IC50 (mNav1.7) of 9.48 nM and a mNav1.7/hNav1.7 (mNav1.7) of 8.41.
`C#CC[C@H](N)C(=O)N[C@@H](Cc1ccc(O)cc1)C(=O)N[C@H]1CSSC[C@@H]2NC(=O)[C@@H]3CSSC[C@@H](C(=O)N[C@@H](CCCNC(=N)N)C(=O)N[C@@H](CCCCN)C(=O)N[C@@H](CCC(=O)O)C(=O)N[C@H](C(N)=O)[C@@H](C)CC)NC(=O)[C@H](Cc4c[nH]c5ccccc45)NC(=O)[C@H](CC(C)C)NC(=O)[C@H](CCCCN)NC(=O)[C@H](CSSC[C@H](NC(=O)[C@H]([C@@H](C)O)NC(=O)[C@H](Cc4c[nH]c5ccccc45)NC(=O)[C@H](CCCC)NC(=O)[C@H](Cc4c[nH]c5ccccc45)NC(=O)[C@H](CCCCN)NC(=O)[C@H](CCC(N)=O)NC1=O)C(=O)N[C@@H](CC(=O)O)C(=O)N[C@@H](CO)C(=O)N[C@@H](CCCCN)C(=O)N[C@@H](CCCNC(=N)N)C(=O)N[C@@H](C)C(=O)N3)NC(=O)[C@H](CCCNC(=N)N)NC(=O)[C@H](CC(C)C)NC(=O)CNC(=O)[C@H](CCC(=O)O)NC2=O` [Pra-[Nle6, Glu28]JzTx-V(1-29)] showed an IC50 (rNav1.7) of 0.641 nM, a rNav1.7/hNav1.7 (rNav1.7) of 1.17 and an IC50 (mouse Nav1.4) of 119 nM. The mNav1.4/mNav1.7 (mouse Nav1.4) was 12, the IC50 (mNav1.7) was 9.86 nM and the mNav1.7/hNav1.7 (mNav1.7) was 17.99.
Work on `C#CC[C@H](N)C(=O)N[C@@H](Cc1ccc(O)cc1)C(=O)N[C@H]1CSSC[C@@H]2NC(=O)[C@@H]3CSSC[C@@H](C(=O)N[C@@H](CCCNC(=N)N)C(=O)N[C@@H](CCCCN)C(=O)N[C@@H](CCC(=O)O)C(=O)N[C@H](C(N)=O)[C@@H](C)CC)NC(=O)[C@H](Cc4c[nH]c5ccccc45)NC(=O)[C@H](CC(C)C)NC(=O)[C@H](CCCCN)NC(=O)[C@H](CSSC[C@H](NC(=O)[C@H]([C@@H](C)O)NC(=O)[C@H](Cc4c[nH]c5ccccc45)NC(=O)[C@H](CCCC)NC(=O)[C@H](Cc4c[nH]c5ccccc45)NC(=O)[C@H](CCCCN)NC(=O)[C@H](CCC(N)=O)NC1=O)C(=O)N[C@@H](CC(=O)O)C(=O)N[C@@H](CCC(=O)O)C(=O)N[C@@H](CCCCN)C(=O)N[C@@H](CCCNC(=N)N)C(=O)N[C@@H](C)C(=O)N3)NC(=O)[C@H](CCCNC(=N)N)NC(=O)[C@H](CC(C)C)NC(=O)CNC(=O)[C@H](CCC(=O)O)NC2=O` [Pra-[Nle6; Glu11, 28]JzTx-V(1-29)] yielded a rNav1.7/hNav1.7 (rNav1.7) of 0.95, a mNav1.4/mNav1.7 (mouse Nav1.4) of 34 and a mNav1.7/hNav1.7 (mNav1.7) of 10.57.
In the case of `C#CC[C@H](N)C(=O)N[C@@H](Cc1ccc(O)cc1)C(=O)N[C@H]1CSSC[C@@H]2NC(=O)[C@@H]3CSSC[C@@H](C(=O)N[C@@H](CCCNC(=N)N)C(=O)N[C@@H](CCCCN)C(=O)N[C@@H](CCC(=O)O)C(=O)N[C@H](C(N)=O)[C@@H](C)CC)NC(=O)[C@H](Cc4c[nH]c5ccccc45)NC(=O)[C@H](CC(C)C)NC(=O)[C@H](CCCCN)NC(=O)[C@H](CSSC[C@H](NC(=O)[C@H]([C@@H](C)O)NC(=O)[C@H](Cc4c[nH]c5ccccc45)NC(=O)[C@H](CCCC)NC(=O)[C@H](Cc4c[nH]c5ccccc45)NC(=O)[C@H](CCCCN)NC(=O)[C@H](CCC(N)=O)NC1=O)C(=O)N[C@@H](CC(=O)O)C(=O)N[C@@H](CO)C(=O)N[C@@H](CCC(=O)O)C(=O)N[C@@H](CCCNC(=N)N)C(=O)N[C@@H](C)C(=O)N3)NC(=O)[C@H](CCCNC(=N)N)NC(=O)[C@H](CC(C)C)NC(=O)CNC(=O)[C@H](CCCCN)NC2=O` [Pra-[Nle6; Glu12, 28; Lys17]JzTx-V(1-29)], the IC50 (rNav1.7) is reported as 2.01 nM, the rNav1.7/hNav1.7 (rNav1.7) is reported as 0.23 and the IC50 (mouse Nav1.4) is reported as 63 nM. For the same compound, the mNav1.4/mNav1.7 (mouse Nav1.4) was 14, the IC50 (mNav1.7) was 4.4 nM and the mNav1.7/hNav1.7 (mNav1.7) was 0.50.
With `C#CC[C@H](N)C(=O)N[C@@H](Cc1ccc(O)cc1)C(=O)N[C@H]1CSSC[C@@H]2NC(=O)[C@@H]3CSSC[C@@H](C(=O)N[C@@H](CCCNC(=N)N)C(=O)N[C@@H](CCCCN)C(=O)N[C@@H](CCC(=O)O)C(=O)N[C@H](C(N)=O)[C@@H](C)CC)NC(=O)[C@H](Cc4c[nH]c5ccccc45)NC(=O)[C@H](CC(C)C)NC(=O)[C@H](CCCCN)NC(=O)[C@H](CSSC[C@H](NC(=O)[C@H]([C@@H](C)O)NC(=O)[C@H](Cc4c[nH]c5ccccc45)NC(=O)[C@H](CCCC)NC(=O)[C@H](Cc4c[nH]c5ccccc45)NC(=O)[C@H](CCCCN)NC(=O)[C@H](CCC(N)=O)NC1=O)C(=O)N[C@@H](CC(=O)O)C(=O)N[C@@H](CO)C(=O)N[C@@H](CCC(=O)O)C(=O)N[C@@H](CCCNC(=N)N)C(=O)N[C@@H](C)C(=O)N3)NC(=O)[C@H](CCCNC(=N)N)NC(=O)[C@H](CC(C)C)NC(=O)CNC(=O)[C@H](CCC(=O)O)NC2=O` [Pra-[Nle6; Glu12, 28]JzTx-V(1-29)] the IC50 (rNav1.7) was 2.66 nM, the rNav1.7/hNav1.7 (rNav1.7) was 1.54 and the IC50 (mouse Nav1.4) was 548 nM. It also gave a mNav1.4/mNav1.7 (mouse Nav1.4) of 34, an IC50 (mNav1.7) of 16.2 nM and a mNav1.7/hNav1.7 (mNav1.7) of 9.37.
With `C#CC[C@H](N)C(=O)N[C@@H](Cc1ccc(O)cc1)C(=O)N[C@H]1CSSC[C@@H]2NC(=O)[C@@H]3CSSC[C@@H](C(=O)N[C@@H](CCCNC(=N)N)C(=O)N[C@@H](CCCCN)C(=O)N[C@H](C(=O)N[C@H](C(N)=O)[C@@H](C)CC)[C@@H](C)CC)NC(=O)[C@H](Cc4c[nH]c5ccccc45)NC(=O)[C@H](CC(C)C)NC(=O)[C@H](CCCCN)NC(=O)[C@H](CSSC[C@H](NC(=O)[C@H]([C@@H](C)O)NC(=O)[C@H](Cc4c[nH]c5ccccc45)NC(=O)[C@H](CCCC)NC(=O)[C@H](Cc4c[nH]c5ccccc45)NC(=O)[C@H](CCCCN)NC(=O)[C@H](CCC(N)=O)NC1=O)C(=O)N[C@@H](CC(=O)O)C(=O)N[C@@H](CO)C(=O)N[C@@H](CCC(=O)O)C(=O)N[C@@H](CCCNC(=N)N)C(=O)N[C@@H](C)C(=O)N3)NC(=O)[C@H](CCCNC(=N)N)NC(=O)[C@H](CC(C)C)NC(=O)CNC(=O)[C@H](CCCCN)NC2=O` [Pra-[Nle6; Glu12; Lys17]JzTx-V(1-29)] the IC50 (rNav1.7) was 0.653 nM, the rNav1.7/hNav1.7 (rNav1.7) was 0.35 and the IC50 (mouse Nav1.4) was 2.77 nM. It also gave a mNav1.4/mNav1.7 (mouse Nav1.4) of 2.2, an IC50 (mNav1.7) of 1.27 nM and a mNav1.7/hNav1.7 (mNav1.7) of 0.68.
